For 18 compounds, IC50 results are on record in US20250388553A1 (Incyte Corporation, priority 2018, published 2025).

Test [1] addresses PI3Kγ (p110γ) Recombinant Human Protein (Homo sapiens (Human), UniProt P48736). Description: PI3K-γ scintillation proximity assay. Format: biochemical. From the text:
Example B. PI3K-γ Scintillation Proximity Assay
Materials: [γ-^33P]ATP (10 mCi/mL) and Wheat Germ Agglutinin (WGA) YSi SPA Scintillation Beads was purchased from Perkin Elmer (Waltham, MA). Lipid kinase substrate, D-myo-Phosphatidylinositol 4,5-bisphosphate (PtdIns(4,5)P2)D (+)-sn-1,2-di-O-octanoylglyceryl, 3-O-phospho linked (PIP2), CAS 204858-53-7, was purchased from Echelon Biosciences (Salt Lake City, UT). PI3Kγ (p110γ) Recombinant Human Protein was purchased from Life technology (Grand Island, NY). ATP, MgCl2, DTT, EDTA, MOPS and CHAPS were purchased from Sigma Aldrich (St. Louis, MO).
(§1) The kinase reaction was conducted in polystyrene 384-well Greiner Bio-one white plate from Thermo Fisher Scientific in a final volume of 25 L. Inhibitors were first diluted serially in DMSO and added to the plate wells before the addition of other reaction components. The final concentration of DMSO in the assay was 2%. The PI3Kγ assay was carried out at room temperature in 20 mM MOPS, pH 6.7, 10 mM MgCl2, 5 mM DTT and CHAPS 0.03%. Reactions were initiated by the addition of ATP, the final reaction mixture consisted of 20 µM […], 0.5 μCi [γ-^33P]ATP, 13 nM PI3Kγ. Reactions were incubated for 120 min and terminated by the addition of 40 μL SPA beads suspended in quench buffer: 163 mM potassium phosphate pH 7.8, 20% glycerol, 25 mM EDTA. The final concentration of SPA beads is 1.0 mg/mL. After the plate sealing, plates were shaken overnight at room temperature and centrifuged at 1500 rpm for 10 min, the radioactivity of the product was determined by scintillation counting on Topcount (Perkin-Elmer). IC50 determination was performed by fitting the curve of percent of the solvent control activity versus the log of the inhibitor concentration using the GraphPad Prism 6.0 software.
(§2) The compounds of the Examples were tested in the assays described in Examples A, B and C and found to have the IC50s are shown in Tables A1, A2, A3 and A4.

In test [2] the target is PI3Kδ (p1106/p85a) Recombinant Human Protein (Homo sapiens (Human), UniProt O00329). The test is described as follows: PI3Kδ scintillation proximity assay. Format: biochemical.
Text: Example C. PI3Kδ Scintillation Proximity Assay
Materials: [γ-^33P]ATP (10 mCi/mL) and Wheat Germ Agglutinin (WGA) YSi SPA Scintillation Beads was purchased from Perkin Elmer (Waltham, MA). Lipid kinase substrate, D-myo-Phosphatidylinositol 4,5-bisphosphate (PtdIns(4,5)P2)D (+)-sn-1,2-di-O-octanoylglyceryl, 3-O-phospho linked (PIP2), CAS 204858-53-7, was purchased from Echelon Biosciences (Salt Lake City, UT). PI3Kδ (p1106/p85a) Recombinant Human Protein was purchased from Eurofins (St Charles, MO). ATP, MgCl2, DTT, EDTA, MOPS and CHAPS were purchased from Sigma Aldrich (St. Louis, MO).
as §1, with “25 μL.” for “25 L.”, “The PI3Kδ” for “The PI3Kγ”, “[γ-^33P]ATP, 3.4” for “[γ-^33P]ATP, 13”, “nM PI3Kδ.” for “nM PI3Kγ.”, “Topcount (PerkinElmer).” for “Topcount (Perkin-Elmer).”
as §2

[3] abbreviates: Table A4, scintillation proximity assay, recombinant human p110γ.
Where [4] appears, read: Table A4, scintillation proximity assay, recombinant human PI3Kδ.
The mark [5] stands for this setting: Table A2, scintillation proximity assay, recombinant human p110γ.
Where [6] appears, read: Table A2, scintillation proximity assay, recombinant human PI3Kδ.
Where [7] appears, read: Table A1, scintillation proximity assay, recombinant human p110γ.
Where [8] appears, read: Table A1, scintillation proximity assay, recombinant human PI3Kδ.
The mark [9] stands for this setting: Table A3, scintillation proximity assay, recombinant human p110γ.
The mark [10] stands for this setting: Table A3, scintillation proximity assay, recombinant human PI3Kδ.

Where a name gives a salt, the structure may show the parent alone. Read-outs that look alike come from different tables or passages of the source. Bounds are passed on as bounds.

Chain of PI3Kδ (p1106/p85a) Recombinant Human Protein (O00329 whole entry): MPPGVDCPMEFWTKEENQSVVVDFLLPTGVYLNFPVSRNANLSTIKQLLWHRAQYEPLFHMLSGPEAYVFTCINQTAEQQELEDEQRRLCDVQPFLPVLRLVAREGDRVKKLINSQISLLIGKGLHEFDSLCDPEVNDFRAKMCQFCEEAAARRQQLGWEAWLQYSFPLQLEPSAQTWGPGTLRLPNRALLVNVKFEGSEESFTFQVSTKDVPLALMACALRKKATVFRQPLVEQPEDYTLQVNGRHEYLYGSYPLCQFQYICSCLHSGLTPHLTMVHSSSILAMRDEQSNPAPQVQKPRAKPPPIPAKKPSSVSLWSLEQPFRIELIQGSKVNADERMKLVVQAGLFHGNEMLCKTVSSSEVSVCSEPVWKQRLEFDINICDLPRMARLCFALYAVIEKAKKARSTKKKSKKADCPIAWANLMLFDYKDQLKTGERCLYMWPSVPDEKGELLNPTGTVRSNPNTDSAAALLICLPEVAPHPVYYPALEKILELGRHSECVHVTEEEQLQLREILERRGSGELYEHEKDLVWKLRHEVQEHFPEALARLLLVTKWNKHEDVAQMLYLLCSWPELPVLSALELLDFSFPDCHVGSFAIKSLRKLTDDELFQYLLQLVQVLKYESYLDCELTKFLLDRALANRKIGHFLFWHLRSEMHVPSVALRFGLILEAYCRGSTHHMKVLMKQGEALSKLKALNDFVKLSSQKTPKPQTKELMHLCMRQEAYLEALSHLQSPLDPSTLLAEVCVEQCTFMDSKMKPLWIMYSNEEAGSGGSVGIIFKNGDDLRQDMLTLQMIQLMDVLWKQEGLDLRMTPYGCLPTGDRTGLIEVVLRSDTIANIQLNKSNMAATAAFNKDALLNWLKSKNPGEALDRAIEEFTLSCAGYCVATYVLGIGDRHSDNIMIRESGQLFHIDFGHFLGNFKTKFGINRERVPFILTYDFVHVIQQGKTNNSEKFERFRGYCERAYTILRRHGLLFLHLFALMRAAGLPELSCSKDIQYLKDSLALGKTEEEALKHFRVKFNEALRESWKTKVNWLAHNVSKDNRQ
Chain of PI3Kδ (p1106/p85a) Recombinant Human Protein (P27986 whole entry partner): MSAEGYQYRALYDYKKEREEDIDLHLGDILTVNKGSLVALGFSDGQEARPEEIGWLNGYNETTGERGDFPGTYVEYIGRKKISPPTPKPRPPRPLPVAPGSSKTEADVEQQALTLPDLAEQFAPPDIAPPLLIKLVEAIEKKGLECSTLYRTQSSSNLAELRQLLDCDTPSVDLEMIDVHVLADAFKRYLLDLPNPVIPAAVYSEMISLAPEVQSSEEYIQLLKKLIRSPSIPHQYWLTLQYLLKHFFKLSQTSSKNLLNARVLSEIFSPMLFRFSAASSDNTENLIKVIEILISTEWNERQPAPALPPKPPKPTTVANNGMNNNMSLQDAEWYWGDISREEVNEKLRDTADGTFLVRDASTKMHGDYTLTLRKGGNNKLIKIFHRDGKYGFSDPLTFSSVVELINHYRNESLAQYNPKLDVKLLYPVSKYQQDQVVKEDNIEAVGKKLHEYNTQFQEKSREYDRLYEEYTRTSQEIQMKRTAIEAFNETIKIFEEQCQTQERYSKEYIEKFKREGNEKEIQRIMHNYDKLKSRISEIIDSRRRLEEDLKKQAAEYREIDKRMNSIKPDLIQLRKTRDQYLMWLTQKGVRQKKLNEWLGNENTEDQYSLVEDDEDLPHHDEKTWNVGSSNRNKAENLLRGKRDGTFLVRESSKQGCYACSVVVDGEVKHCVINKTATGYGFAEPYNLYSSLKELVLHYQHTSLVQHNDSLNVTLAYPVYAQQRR
Chain of PI3Kγ (p110γ) Recombinant Human Protein (P48736 whole entry): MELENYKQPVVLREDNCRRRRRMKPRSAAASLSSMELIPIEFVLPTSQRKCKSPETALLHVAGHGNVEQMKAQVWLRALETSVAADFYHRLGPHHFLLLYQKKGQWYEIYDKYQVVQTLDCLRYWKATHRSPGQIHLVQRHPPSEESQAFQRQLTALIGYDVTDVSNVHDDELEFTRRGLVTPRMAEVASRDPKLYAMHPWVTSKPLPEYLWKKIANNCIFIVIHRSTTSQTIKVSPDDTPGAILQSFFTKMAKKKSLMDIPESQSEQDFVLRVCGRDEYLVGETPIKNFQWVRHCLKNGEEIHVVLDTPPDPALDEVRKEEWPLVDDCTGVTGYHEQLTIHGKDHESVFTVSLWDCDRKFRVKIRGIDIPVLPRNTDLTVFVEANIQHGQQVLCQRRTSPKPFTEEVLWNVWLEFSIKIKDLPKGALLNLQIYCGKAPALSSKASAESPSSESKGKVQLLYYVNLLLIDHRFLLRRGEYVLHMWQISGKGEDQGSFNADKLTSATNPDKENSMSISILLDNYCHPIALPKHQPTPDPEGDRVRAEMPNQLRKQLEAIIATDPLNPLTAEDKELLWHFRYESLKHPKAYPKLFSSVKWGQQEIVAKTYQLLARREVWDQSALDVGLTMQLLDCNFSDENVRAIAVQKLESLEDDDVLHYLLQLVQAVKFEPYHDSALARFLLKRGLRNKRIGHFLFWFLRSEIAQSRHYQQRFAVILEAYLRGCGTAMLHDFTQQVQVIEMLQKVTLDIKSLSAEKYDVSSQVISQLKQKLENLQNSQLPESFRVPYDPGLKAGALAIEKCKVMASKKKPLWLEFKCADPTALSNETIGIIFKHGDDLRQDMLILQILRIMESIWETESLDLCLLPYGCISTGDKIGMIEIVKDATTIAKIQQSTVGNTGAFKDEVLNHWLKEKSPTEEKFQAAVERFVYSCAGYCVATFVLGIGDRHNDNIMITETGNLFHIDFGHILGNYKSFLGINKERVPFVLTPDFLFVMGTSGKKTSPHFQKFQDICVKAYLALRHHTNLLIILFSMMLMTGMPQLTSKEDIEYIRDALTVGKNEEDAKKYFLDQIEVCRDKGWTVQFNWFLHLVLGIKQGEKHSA

For the compound `Cc1ccc(C(O)(C(N)=O)C(F)(F)F)cc1-c1cnc(N)c(N2CCN(C(=O)c3ccco3)CC2)n1` (stereo not drawn) [Example 127, 2-(3-(5-amino-6-(4-(furan-2-carbonyl)piperazin-1-yl)pyrazin-2-yl)-4-methylphenyl)-3,3,3-trifluoro-2-hydroxypropanamide trifluoroacetate], the IC50 in test [1] and in test [2] was less than 100 nM in each case.

Take `CC(=O)N1CCN(c2nc(-c3cc(C(O)(C(N)=O)C(F)(F)F)ccc3C)cnc2N)CC1` (stereo not drawn) [Example 114, 2-(3-(6-(4-acetylpiperazin-1-yl)-5-aminopyrazin-2-yl)-4-methylphenyl)-3,3,3-trifluoro-2-hydroxypropanamide trifluoroacetate]: the IC50 in test [1] (setting [3]) and in test [2] (setting [4]) was less than 100 nM throughout.

`Cc1cnc(C#Cc2nc(-c3cc(C(O)(C(N)=O)C(F)(F)F)ccc3C)cnc2N)cn1` (stereo not drawn) [Example 66, 2-(3-(5-amino-6-((5-methylpyrazin-2-yl)ethynyl)pyrazin-2-yl)-4-methylphenyl)-3,3,3-trifluoro-2-hydroxypropanamide]: the IC50 in test [1] (setting [5]) and in test [2] (setting [6]) was less than 100 nM each time.

Take `COc1cc(C#Cc2nc(-c3cc(C(O)(C(N)=O)C(F)(F)F)ccc3C)cnc2N)cc(OC)c1` (stereo not drawn) [Example 60, 2-(3-(5-amino-6-((3,5-dimethoxyphenyl)ethynyl)pyrazin-2-yl)-4-methylphenyl)-3,3,3-trifluoro-2-hydroxypropanamide]: the IC50 in test [1] (setting [5]) and in test [2] (setting [6]) was less than 100 nM throughout.

With `Cc1ccc(C(O)(C(N)=O)C(F)(F)F)cc1-c1cnc(N)c(C(=O)N[C@H]2CCCOC2)n1` (stereo partly drawn) [Example 10, 3-amino-6-(5-(3-amino-1,1,1-trifluoro-2-hydroxy-3-oxopropan-2-yl)-2-methylphenyl)-N-((S)-tetrahydro-2H-pyran-3-yl)pyrazine-2-carboxamide trifluoroacetate], the concentration for half-maximal inhibition (IC50) in test [1] (setting [7]) and in test [2] (setting [8]) was less than 100 nM in each case.

In the case of `Cc1ccc(C(O)(C(N)=O)C(F)(F)F)cc1-c1cnc(N)c(C(=O)N[C@@H](C)CO)n1` (stereo partly drawn) [Example 12, 3-amino-6-(5-(3-amino-1,1,1-trifluoro-2-hydroxy-3-oxopropan-2-yl)-2-methylphenyl)-N-((S)-1-hydroxypropan-2-yl)pyrazine-2-carboxamide], the IC50 in test [1] (setting [7]) and in test [2] (setting [8]) was less than 100 nM throughout.

Take `Cc1ccc(C(O)(C(N)=O)C(F)(F)F)cc1-c1cnc(N)c(N2CCN(c3cccc(C(F)(F)F)c3)CC2)n1` (stereo not drawn) [Example 121, 2-(3-(5-amino-6-(4-(3-(trifluoromethyl)phenyl)piperazin-1-yl)pyrazin-2-yl)-4-methylphenyl)-3,3,3-trifluoro-2-hydroxypropanamide trifluoroacetate]: the IC50 in test [1] (setting [3]) is less than 100 nM; in test [2] (setting [4]) it was 100 to 500 nM.

As to `Cc1ncc(-c2nc(-c3cc(C(O)(C(N)=O)C(F)F)ccc3C)cnc2N)o1` (stereo not drawn) [Example 100, 2-(3-(5-amino-6-(2-methyloxazol-5-yl)pyrazin-2-yl)-4-methylphenyl)-3,3-difluoro-2-hydroxypropanamide], the half-inhibitory concentration (IC50) in test [1] (setting [9]) and in test [2] (setting [10]) was less than 100 nM throughout.

Take `Cc1ccc(C(O)(C(N)=O)C(F)F)cc1-c1cnc(N)c(-c2ccnn2C)n1` (stereo not drawn) [Example 98, 2-(3-(5-Amino-6-(1-methyl-1H-pyrazol-5-yl)pyrazin-2-yl)-4-methylphenyl)-3,3-difluoro-2-hydroxypropanamide]: the IC50 in test [1] (setting [9]) and in test [2] (setting [10]) was less than 100 nM in each case.

Turning to `Cc1ccc(C(O)(C(N)=O)C(F)(F)F)cc1-c1cnc(N)c(C(=O)NC(C)C)n1` (stereo not drawn) [Example 5, 3-Amino-6-(5-(3-amino-1,1,1-trifluoro-2-hydroxy-3-oxopropan-2-yl)-2-methylphenyl)-N-isopropylpyrazine-2-carboxamide trifluoroacetate], the IC50 in test [1] (setting [7]) and in test [2] (setting [8]) was less than 100 nM in each case.

As for `Cc1ccc(C(O)(C(N)=O)C(F)(F)F)cc1-c1cnc(N)c(C(=O)NC23CCC(C#N)(C2)C3)n1` (stereo not drawn) [Example 24, 3-amino-6-(5-(3-amino-1,1,1-trifluoro-2-hydroxy-3-oxopropan-2-yl)-2-methylphenyl)-N-(4-cyanobicyclo[2.1.1]hexan-1-yl)pyrazine-2-carboxamide trifluoroacetate], the IC50 in test [1] (setting [7]) and in test [2] (setting [8]) was less than 100 nM in each case.

Consider `Cc1ccc(C(O)(CNC(=O)C(C)(C)O)C(F)(F)F)cc1-c1cnc(N)c(C(=O)NC(C)C)n1` (stereo not drawn) [Example 41, 3-Amino-N-isopropyl-6-(2-methyl-5-(1,1,1-trifluoro-2-hydroxy-3-(2-hydroxy-2-methylpropanamido)propan-2-yl)phenyl)pyrazine-2-carboxamide trifluoroacetate], for which the figures for the IC50 in test [1] (setting [7]) and in test [2] (setting [8]) were less than 100 nM and 100 to 500 nM, respectively.

Regarding `Cc1ccc([C@@](O)(C(N)=O)C(F)(F)F)cc1-c1cnc(N)c(N2CCN(C(=O)C3CC3)CC2)n1` [Example 115, (R)-2-(3-(5-amino-6-(4-(cyclopropanecarbonyl)piperazin-1-yl)pyrazin-2-yl)-4-methylphenyl)-3,3,3-trifluoro-2-hydroxypropanamide trifluoroacetate], the IC50 in test [1] (setting [3]) and in test [2] (setting [4]) was less than 100 nM throughout.

With `Cc1ccc(C(O)(C(N)=O)C(F)(F)F)cc1-c1cnc(N)c(N2CCN3C(=O)CCC3C2)n1` (stereo not drawn) [Example 126, 2-(3-(5-amino-6-(6-oxohexahydropyrrolo[1,2-a]pyrazin-2(1H)-yl)pyrazin-2-yl)-4-methylphenyl)-3,3,3-trifluoro-2-hydroxypropanamide trifluoroacetate], the IC50 in test [1] (setting [3]) and in test [2] (setting [4]) was less than 100 nM in each case.

Consider `COC(C)(C)CNC(=O)c1nc(-c2cc(C(O)(C(N)=O)C(F)(F)F)ccc2C)cnc1N` (stereo not drawn) [Example 21, 3-amino-6-(5-(3-amino-1,1,1-trifluoro-2-hydroxy-3-oxopropan-2-yl)-2-methylphenyl)-N-(2-methoxy-2-methylpropyl)pyrazine-2-carboxamide trifluoroacetate], for which the IC50 in test [1] (setting [7]) and in test [2] (setting [8]) was less than 100 nM in each case.

`Cc1ccc(C(O)(C(N)=O)C(F)(F)F)cc1-c1cnc(N)c(N2CCN(c3nccnc3C#N)CC2)n1` (stereo not drawn) [Example 128, 2-(3-(5-amino-6-(4-(3-cyanopyrazin-2-yl)piperazin-1-yl)pyrazin-2-yl)-4-methylphenyl)-3,3,3-trifluoro-2-hydroxypropanamide trifluoroacetate]: the IC50 in test [1] (setting [3]) and in test [2] (setting [4]) was less than 100 nM throughout.

On to `Cc1ccc(C(O)(C(N)=O)C(F)(F)F)cc1-c1cnc(N)c(C(=O)NC2CCOCC2)n1` (stereo not drawn) [Example 2, 3-amino-6-(5-(3-amino-1,1,1-trifluoro-2-hydroxy-3-oxopropan-2-yl)-2-methylphenyl)-N-(tetrahydro-2H-pyran-4-yl)pyrazine-2-carboxamide trifluoroacetate], for which the half-inhibitory concentration (IC50) in test [1] (setting [7]) and in test [2] (setting [8]) was less than 100 nM throughout.

Consider `Cc1ccc(C(O)(C(N)=O)C(F)(F)F)cc1-c1cnc(N)c(C#CC2CC2)n1` (stereo not drawn) [Example 48, 2-(3-(5-amino-6-(cyclopropylethynyl)pyrazin-2-yl)-4-methylphenyl)-3,3,3-trifluoro-2-hydroxypropanamide], for which the IC50 in test [1] (setting [5]) and in test [2] (setting [6]) was less than 100 nM each time.
